This is an account of results in patent publication US11542264B2, “Heteroaromatic NMDA receptor modulators and uses thereof” (Cadent Therapeutics, Inc., priority 2018, dated 2023).

Series [1] deals with PCP-induced cognitive impairment. As to the kind of experiment: Rat Novel Object Recognition (NOR) test, PCP-induced cognitive impairment. To be noted: PCP 5 mg/kg intraperitoneal twice daily for 7 days, 14-day washout.
Description: Rats were treated twice daily for 7 days with either saline vehicle (control group) or PCP (5 mg/kg, intraperitoneal). Following a 14-day washout period of no treatment, rats were tested in the NOR paradigm. Briefly, testing involves two sessions (T1 and T2), each lasting 3 minutes, 1 hour apart. […] In T1, rats are placed in a test arena with two identical objects and allowed to freely explore while their time spent exploring each object is recorded. In T2, rats are returned to the test arena where one of the objects remains the same and the other has been replaced with a novel object. The time spent exploring the novel object versus the time spent exploring the familiar object are recorded and compared to T1 object exploration times.
The target in another series is T1, hNR2B (Homo sapiens, UniProt Q05586+Q13224).
T1 construct: expressed in transfected cells
Description: Oocyte 2EVC NR2B PAM activity. Format: cell-based. Particulars: read-out: Oocyte 2EVC NR2B PAM: EC50. The source says: EC50 refers to the concentration of a compound that gives half-maximal response.

The next series concerns NMDA receptor. Particulars: cited from earlier work; for % response recovered with Ro 25-6981 and DCKA: Table 49 of WO 2017/100591; for Maximum measured potentiation (%) with Ro 25-6981 and DCKA: comparator examples from WO 2017/100591.
The nature of series [2]: Aqueous solubility, shake-flask method. It is filed as physicochemical. To be noted: phosphate buffer saline, pH 7.4, shake-flask, HPLC-UV; for solubility: pH 7.4, aqueous buffer, kinetic from dmso stock. Here is the method:
The aqueous solubility of the test compound was determined in phosphate buffer saline, pH 7.4, measured by shake-flask method. In this assay, DMSO stock solution of test compound was added to buffer followed by equilibration (shaking), filtration, and determination of soluble amount by HPLC-UV. […] Other imidazopyrazinone comparators from WO 2017/100591 are provided for reference. All comparator analogs are active and potency data is available in WO 2017/100591. This improvement is advantageous because improved aqueous solubility, in one aspect, is anticipated to provide enhanced in vivo performance in humans.

The nature of series [3]: Rat liver microsome stability. It is filed as in vitro ADME. To be noted: rat, liver microsomes; Table 4; read-out: Rat liver microsome (RLM) stability t1/2. The source says:
The liver is the most important site of drug metabolism in the body. Approximately 60% of marketed compounds are cleared by hepatic CYP-mediated metabolism (McGinnity, D. F.; Soars, M. G.; Urbanowicz, R. A. and Riley, R. J.; Drug Metab. Disp. 32, 1247, (2004)). Liver microsomes are subcellular fractions which contain membrane bound drug metabolizing enzymes. Microsomes can be used to determine the in vitro intrinsic clearance of a compound. The use of species-specific microsomes can be used to enable an understanding of interspecies differences.

The nature of series [4]: Rat IV pharmacokinetic study, in vivo clearance. The source says: Rat microsomal stability data is provided as well. These improvements in in vitro and in vivo clearance are advantageous because reduced clearance, in one aspect, is anticipated to provide enhanced in vivo performance in humans.
Series [5] relates to impairment of MMN by MK-801. As to the kind of experiment: Mismatch negativity (MMN) efficacy model. Particulars: rat, MK-801 0.2 mg/kg, IP.
Description: Rats implanted with frontal EEG electrodes were presented with different audio stimuli comprising an auditory oddball “flip-flop” protocol. Briefly, 1,000 standard tones of 6.0 kHz were delivered at 90% probability, and 100 deviant tones of 8.0 kHz were delivered at 10% probability in pseudo-random order (the flip sequence), and then this sequence was then repeated with the 8 kHz tone as the standard, and the 6 kHz tone as the deviant (the flop sequence). MMN is calculated as a difference potential obtained by subtracting the averaged 8 kHz standard tone response (flop) from the averaged 8 kHz deviance tone response (flip) at each 1 ms time point over the EEG recording epochs from 50 ms prior to 150 ms after the onset of these 50 ms auditory tones.
Test sessions were comprised of three 20-minute flip-flop blocks.

In brackets after ≈: the same amount, converted by molar mass. Read-outs that look alike come from different tables or passages of the source.

T1 sequence (Q13224 27-1484, other chains not shown): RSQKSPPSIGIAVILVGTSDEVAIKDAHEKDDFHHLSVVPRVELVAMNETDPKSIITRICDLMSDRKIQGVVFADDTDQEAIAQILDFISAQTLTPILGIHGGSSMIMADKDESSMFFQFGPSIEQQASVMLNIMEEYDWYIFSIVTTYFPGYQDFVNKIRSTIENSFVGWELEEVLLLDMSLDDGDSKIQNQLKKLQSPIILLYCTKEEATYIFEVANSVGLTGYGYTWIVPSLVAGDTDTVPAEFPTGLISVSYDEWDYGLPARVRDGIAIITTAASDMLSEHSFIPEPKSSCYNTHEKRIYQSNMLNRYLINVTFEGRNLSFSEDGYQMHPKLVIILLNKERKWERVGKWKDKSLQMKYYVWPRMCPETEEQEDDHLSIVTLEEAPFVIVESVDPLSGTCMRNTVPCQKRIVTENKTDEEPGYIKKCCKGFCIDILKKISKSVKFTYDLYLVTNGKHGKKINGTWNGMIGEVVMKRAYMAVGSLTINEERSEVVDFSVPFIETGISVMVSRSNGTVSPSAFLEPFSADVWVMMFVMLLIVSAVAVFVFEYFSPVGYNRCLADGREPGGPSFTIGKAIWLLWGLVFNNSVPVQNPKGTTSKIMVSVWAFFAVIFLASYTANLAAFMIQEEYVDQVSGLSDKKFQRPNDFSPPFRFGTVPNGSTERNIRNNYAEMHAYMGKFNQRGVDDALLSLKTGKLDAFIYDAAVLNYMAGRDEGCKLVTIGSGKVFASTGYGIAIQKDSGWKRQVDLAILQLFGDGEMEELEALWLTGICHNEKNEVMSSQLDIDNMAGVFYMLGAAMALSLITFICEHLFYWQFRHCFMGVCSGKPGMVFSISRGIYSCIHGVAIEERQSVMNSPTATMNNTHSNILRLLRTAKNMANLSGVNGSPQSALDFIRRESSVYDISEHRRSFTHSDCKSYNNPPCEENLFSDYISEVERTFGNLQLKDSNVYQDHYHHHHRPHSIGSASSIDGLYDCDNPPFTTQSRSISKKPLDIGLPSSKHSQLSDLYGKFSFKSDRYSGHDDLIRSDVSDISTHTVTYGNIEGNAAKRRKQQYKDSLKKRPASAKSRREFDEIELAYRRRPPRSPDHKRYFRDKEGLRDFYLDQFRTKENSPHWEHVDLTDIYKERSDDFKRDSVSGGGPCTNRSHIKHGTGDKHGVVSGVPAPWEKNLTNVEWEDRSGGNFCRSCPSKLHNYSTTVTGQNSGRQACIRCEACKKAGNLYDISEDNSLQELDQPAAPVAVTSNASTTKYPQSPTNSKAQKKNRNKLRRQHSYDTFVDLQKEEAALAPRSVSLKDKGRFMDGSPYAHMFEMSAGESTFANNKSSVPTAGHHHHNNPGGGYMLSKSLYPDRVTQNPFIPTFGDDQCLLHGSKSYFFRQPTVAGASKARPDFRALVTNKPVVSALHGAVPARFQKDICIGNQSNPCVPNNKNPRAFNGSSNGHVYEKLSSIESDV

Consider `c1ccc(C2(N3CCCCC3)CCCCC2)cc1` [PCP, phencyclidine], for which the “time spent exploring the novel object compared to saline control” value in series [1] was “significant reduction in time spent exploring the novel object”.
As a reminder, the EC50 is the concentration at which the effect is half-maximal. In the case of `O=C(Cn1cnc2[nH]cc(-c3ccc(F)c(C(F)(F)F)c3)c2c1=O)N1CCC(F)C1` (centres unmarked) [Example 174], at hNR2B (Table 1), the EC50 amounted to 1500 nM. For the same compound, in the series with NMDA receptor, the “% response recovered with Ro 25-6981 and DCKA” value (shortened to “% response recovered”) is given as 91%; the “Maximum measured potentiation (%) with Ro 25-6981 and DCKA” value is recorded as 124%.
A word on the solubility: it is how much of the substance goes into solution per volume. In turn, `CC1(F)CN(C(=O)Cn2ccn3cnc(-c4ccc(F)c(Cl)c4)c3c2=O)C1` [Example 445] showed a solubility in series [2] of 14 µM (≈ 5.5 µg/mL).
As a reminder, the clearance is the rate of elimination divided by the concentration. A higher clearance goes with efficient removal. As to `CC1(F)CN(C(=O)Cn2ccn3ccc(-c4ccc(Cl)c(Cl)c4)c3c2=O)C1` [Example 396], the EC50 on hNR2B (Table 4) came to 589 nM. Moreover, in series [3], the half-life came out at 75 min. In series [4], this compound displayed a clearance of 23.4 mL/min/kg.
Regarding `CC1(F)CN(C(=O)Cn2ccn3c(C4CC4)nc(-c4ccc(F)c(Cl)c4)c3c2=O)C1` [Example 436], the solubility in series [2] worked out at 3 µM (≈ 1.3 µg/mL). Also, in the series with NMDA receptor, the “% response recovered” value is 100%.
As for `Cc1nc(-c2ccc(Cl)c(Cl)c2)c2c(=O)n(CC(=O)N3CCC(F)C3)ccn12` (centres unmarked) [Example 429], the solubility in series [2] was 26 µM (≈ 11 µg/mL).
Still for that read-out and setting: the result for `Cc1cc(-c2nc(C3CC3)n3ccn(CC(=O)N4CC(C)(F)C4)c(=O)c23)ccc1Cl` [Example 443] reads 91 µM (≈ 39 µg/mL).
In the case of `CC1(F)CN(C(=O)Cn2ccc3scc(-c4ccc(F)c(Cl)c4)c3c2=O)C1` [Example 39], the EC50 on hNR2B (Table 4) worked out at 726 nM. Besides, in series [3], the half-life was found to be 42 min. Moreover, in series [4], the clearance came out at 27.8 mL/min/kg.
`Cc1nc(-c2ccc(F)c(C(F)(F)F)c2)c2c(=O)n(CC(=O)N3CCC(F)C3)ccn12` (centres unmarked) [Example 427] showed a solubility in series [2] of 7 µM (≈ 3.08 µg/mL).
In the case of `O=C(Cn1cnc2[nH]cc(-c3ccc(Cl)c(C(F)(F)F)c3)c2c1=O)N1C[C@@H](F)[C@@H](F)C1` [Example 181], at hNR2B (Table 1), the EC50 stood at 1190 nM. Moreover, in the series on NMDA receptor, the “% response recovered” value was 69%; the “Maximum measured potentiation (%) with Ro 25-6981 and DCKA” value is recorded as 129%.
As for `C[C@]12N[C@H](Cc3ccccc31)c1ccccc12` [MK-801], the “MMN after vehicle plus MK-801 compared to vehicle plus saline” value in series [5] is on record as “significantly impaired MMN”.
In the case of `CC1(F)CN(C(=O)Cn2ccc3scc(-c4ccc(F)c(C(F)(F)F)c4)c3c2=O)C1` [Example 43], the EC50 at hNR2B (Table 4) turned out to be 441 nM. The half-life in series [3] turned out to be 60.8 min. Also, the clearance in series [4] is 29.4 mL/min/kg.
In series [2], `O=C(Cn1ccn2c(C3CC3)nc(-c3ccc(Cl)c(Cl)c3)c2c1=O)N1CCC(F)C1` (centres unmarked) [Example 433] came in with a solubility of 30 µM (≈ 13.5 µg/mL).
In the case of `CC1(F)CN(C(=O)Cn2ccc3c(c(-c4ccc(F)c(Cl)c4)cn3C3CC3)c2=O)C1` [Example 285], the EC50 at hNR2B (Table 4) is 200 nM. Moreover, the half-life in series [3] came to 37.8 min. This compound came in with a clearance in series [4] of 22.2 mL/min/kg. The “potency in the Ro 25-6981/DCKA assay (in words)” value in the series on NMDA receptor (data of WO 2017/100591) is on record as “excellent potency”.
In the case of `O=C(Cn1ccc2scc(-c3ccc(F)c(Cl)c3)c2c1=O)N1CCCC1` [Example 3], on hNR2B (Table 4), the EC50 amounted to 7010 nM. Besides, the half-life in series [3] was determined as 47.2 min. For the same compound, the clearance in series [4] came out at 43.6 mL/min/kg.
For the compound `CC1(F)CN(C(=O)Cn2ccn3cnc(-c4ccc(F)c(C(F)(F)F)c4)c3c2=O)C1` [Example 446], the solubility in series [2] was 9 µM (≈ 3.84 µg/mL).
Same read-out and setting: the result for `CC1(F)CN(C(=O)Cn2ccn3c(C4CC4)nc(-c4ccc(Cl)c(Cl)c4)c3c2=O)C1` [Example 435] reads 14 µM (≈ 6.29 µg/mL); that for `CC1(F)CN(C(=O)Cn2ccn3cnc(-c4ccc(Cl)c(Cl)c4)c3c2=O)C1` [Example 447], 69 µM (≈ 28.2 µg/mL).
Same read-out and setting: the result for `CC1(F)CN(C(=O)Cn2ccn3c(C4CC4)nc(-c4ccc(F)c(C(F)(F)F)c4)c3c2=O)C1` [Example 438] reads 2 µM (≈ 0.933 µg/mL); that for `CC1(F)CN(C(=O)Cn2ccn3c(C4CC4)nc(-c4cnc(Cl)c(Cl)c4)c3c2=O)C1` [Example 437], 7 µM (≈ 3.15 µg/mL).
Regarding `CC1(F)CN(C(=O)Cn2ccc3scc(-c4ccc(Cl)c(Cl)c4)c3c2=O)C1` [Example 42], the EC50 on hNR2B (Table 4) amounted to 463 nM. Further, in series [3], the half-life came out at 36 min. Further, the clearance in series [4] came out at 26.9 mL/min/kg.
Taken in the same sequence, the figures for `CC1(F)CN(C(=O)Cn2ccn3ccc(-c4ccc(F)c(Cl)c4)c3c2=O)C1` [Example 397] were 1210 nM, 37.3 min and 46.2 mL/min/kg.
Consider `O=C(Cn1ccc2scc(-c3cnc(Cl)c(Cl)c3)c2c1=O)N1CCC(F)C1` (centres unmarked) [Example 12], for which, on hNR2B (Table 4), the EC50 amounted to 5630 nM. Moreover, in series [3], the half-life stood at 200 min. The compound also came in with a clearance in series [4] of 19.4 mL/min/kg.
The term Aqueous solubility denotes the concentration that dissolves in the medium under given conditions. Higher therefore signals much dissolved substance. `Cc1nc(-c2ccc(F)c(Cl)c2)c2c(=O)n(CC(=O)N3CC(C)(F)C3)ccn12` [Example 430] yielded an Aqueous solubility in series [2] of 43 µM.
As for `O=C(Cn1ccc2scc(-c3ccc(F)c(Cl)c3)c2c1=O)N1CCC(F)C1` (centres unmarked) [Example 9], on hNR2B (Table 4), the half-maximal effective concentration (EC50) is 3530 nM. In series [3], the half-life is 37.8 min. Besides, in series [4], the clearance is 35.5 mL/min/kg.
`Cc1nc(-c2ccc(F)c(Cl)c2)c2c(=O)n(CC(=O)N3CC(C)(F)C3)ccn12` [Example 426]: the Aqueous solubility in series [2] is 20 µM.
